The values that follow come from ChEMBL document CHEMBL4610069, “Chetocochliodins A-I, Epipoly(thiodioxopiperazines) from Chaetomium cochliodes” (J Nat Prod, 2020).

Common to all, as to type: functional, cell-based
Assay [1] relates to A549. The assay can be described thus: Cytotoxicity against human A549 cells by MTT assay. Background: Tetrazolium assays rely on reduction of a dye to a coloured formazan, in cell work by metabolically active cells.
Assay [2] has as its system Huh-7. The experiment in a line: Cytotoxicity against human HuH7 cells by MTT assay.
Assay [3] concerns HeLa. The experiment in a line: Cytotoxicity against human HeLa cells by MTT assay.
In assay [4] the test system is A549. The experiment in a line: Cytotoxicity against human A549 cells up to 100 uM by MTT assay.
In assay [5] the test system is Huh-7. The experiment in a line: Cytotoxicity against human HuH7 cells up to 100 uM by MTT assay.
The subject of assay [6] is HeLa. The assay can be described thus: Cytotoxicity against human HeLa cells up to 100 uM by MTT assay.

The source made the active and inactive calls. The calls are words filed in the database; no cut-off is given here.

What is called IC50 is the concentration that gives 50% inhibition.

`CS[C@]1(CO)NC(=O)[C@](Cc2c[nH]c3ccccc23)(SC)NC1=O`: the outcome in the assay with A549 [1], with Huh-7 [2] and in the assay with HeLa [3] was inactive.

For the compound `CO[C@@]1(CO)NC(=O)[C@](Cc2c[nH]c3ccccc23)(SC)NC1=O`, the outcome in the assay on A549 [1], in the assay on Huh-7 [2] and in the assay with HeLa [3] was inactive.

On to `CO[C@]1(CO)NC(=O)[C@@](Cc2c[nH]c3ccccc23)(OC)NC1=O`, for which the outcome in the assay on A549 [4], in the assay on Huh-7 [5] and in the assay on HeLa [6] was inactive.

As for `CN1C(=O)[C@]2(Cc3c[nH]c4ccccc34)SSSS[C@@]1(CO)C(=O)N2C`, the IC50 in the assay with A549 [1], with Huh-7 [2] and with HeLa [3] was 0.93 to 2.45 µM throughout.

`CO[C@]1(CO)NC(=O)[C@](Cc2c[nH]c3ccccc23)(OC)NC1=O`: the outcome in the assay with A549 [4], with Huh-7 [5] and with HeLa [6] was inactive.

On to `CO[C@]1(CO)NC(=O)[C@](Cc2c[nH]c3ccccc23)(SC)NC1=O`, for which the result with A549 [1], in the assay with Huh-7 [2] and with HeLa [3] was inactive.

As to `CO[C@]1(Cc2c[nH]c3ccccc23)NC(=O)[C@H](CO)N(C)C1=O`, the outcome with A549 [4], with Huh-7 [5] and in the assay with HeLa [6] was inactive.
